Assays:
[1] = Circular dichroism (secondary structure); type: physicochemical; conditions: 25 μM peptide in water, room temperature, 195-250 nm
Description: Circular dichroism (DC). CD spectra were gathered on an Aviv model 202 spectropolarimeter. Samples were prepared by diluting stock peptide solutions in water (0.5%) to a working concentration of 25 μM. Samples were analysed at room temperature in a quartz cuvette with a path length of 0.3 cm and in the wavelength range 195-250 nm.
Circular dichroism. CD spectra were obtained for each peptide sequence to assess its secondary structure. The secondary structure identifies ordered structures within a polypeptide such as α-helices and β-sheets. […] (Havel, 1996).

[2] = system: human aortic endothelial cells (HAEC); test: HAEC monolayer formation on peptide scaffolds; type: cell-based; parameters: key to HAEC monolayer formation, peptide content 100% / HAEC monolayer formation, Blending (9:1): +: Score for optimal monolayer formation and cell survival; −: Score for poor or none monolayer formation and cell survival; conditions: for HAEC monolayer formation, Blending (9:1): RAD16-I: peptide sequence at a ratio 9:1 (v/v); for HAEC monolayer formation, peptide content 100%: scaffold of 100% peptide, 0.5% (w/v); for HAEC monolayer formation, peptide blends: 9:1 RAD16-I:modified peptide, seeded subconfluent (~30%)
Description: Endothelial cell culture system. Peptide scaffolds (0.5% w/v) were prepared at 100% peptide sequence for RAD16-I or blended with RAD16-I at a radio of 9:1 (RAD16-I: peptide sequence, on a volume/volume basis) for the three other cases (YIG, RYV, and TAG). Each solution was filtered (0.2 μm, Acrodysc filters, 4192, PALL, MI), loaded (30 μl) on top of a cell culture chamber insert (10 mm diameter, 136935, Nalge Nunc International, IL), and allowed to form a layer (average thickness=600 μm). Phosphate Buffer Saline (PBS) (600 μl) was added at the bottom of the well to induce hydrogel formation, and the system was incubated at room temperature for 30 min. PBS was replaced with culture medium, which was then replaced with fresh medium. The scaffolds were incubated for 1 hour with endothelial cell growth media (EGM-2, Cambrex, MD) in a cell culture incubator at 37° C. with 5% CO2.
(§1) Meanwhile, human aortic endothelial cells (HAEC) (CC-2535, Cambrex, MD) that had been maintained under standard culture conditions (passage 5-6) were harvested at 80% confluence using trypsin and loaded on top of the preformed peptide scaffolds at a cell density of 8×10^4 cells/cm^2 and cultured in the cell culture incubator at 37° C. with 5% CO2. Cell attachment assays were performed one hour after the initial cell loading. To perform the assays, the covering media was removed, and unattached cells were counted on a hematocytometer. Cell counting was performed by mechanically disrupting the scaffold containing cells by pipetting up and down and then counting cells on a hematocytometer after performing Trypan blue (T 9906, Sigma, MO) exclusion assay staining to assess cell viability. In some experiments, for comparison, EC were cultured on inserts coated with Matrigel or collagen (1.5 mg/ml, i.e. 0.15%) according to standard protocols.
In a first experiment, we tested the ability of HAEC to attach and form a monolayer when seeded on various peptide scaffolds generated by self-assembly of the peptides following addition of PBS to a 0.5%(w/v) solution of the peptide in water. […] HAEC cultured in the presence of scaffolds generated from peptides incorporating the other biologically active peptide motifs either died or formed isolated clusters (FIGS. 9A-9G).
We therefore decided to blend the peptides incorporating biologically active motifs with the prototypic RAD16-I sequence in order to reduce the overall concentration of the biologically active motif presented to cells. We selected a volume/volume ratio of 9:1 (RAD16-I:modified peptide sequence comprising biologically active peptide motif, where peptides were dissolved at equal concentrations on a w/w basis) and generated peptide scaffolds from solutions in which the unmodified and modified peptides were present in this ratio.

[3] = system: human aortic endothelial cells (HAEC); test: HAEC attachment assay on peptide scaffolds; type: cell-based; conditions: after one hour; modified peptides as 9:1 blends with RAD16-I
Description: as §1

[4] = system: human aortic endothelial cells (HAEC); test: NO release determination (Griess method); type: cell-based; conditions: nitrite in culture supernatant; RAD16-I 100%, others 9:1 blend
Description: NO release determination. Nitric oxide (NO) release was estimated by measuring nitrites (NOx) by the Griess method. Briefly, the media was replaced after the third day of culture by new media without fetal bovine serum (FBS) or ascorbic acid. The next day, the media was used to analyze NO release using a commercially available kit (482702, Calbiochem, CA) following the manufacturer instructions. Each condition was tested in triplicate.

[5] = system: chondrocytes; conditions: encapsulated cells; cited from earlier work
[6] = system: PC12 cells, endothelial cells, heparin; conditions: cited from earlier work

Molecule	Secondary structure (CD) [1]	HAEC monolayer formation, Blending (9:1) [2]	HAEC monolayer formation, peptide content 100% [2]	HAEC monolayer formation, scaffold of 100% peptide ([2]; 0.5% (w/v) peptide, no blending)	HAEC monolayer formation, peptide blends [2]	HAEC attachment to the surface [3]	nitric oxide (NO) release by HAEC [4]	chondrocyte phenotype in hydrogel [5]	Biological activity [6]
CC(=O)N1CCC[C@H]1C(=O)N[C@@H](CC(=O)O)C(=O)N[C@@H](CO)C(=O)NCC(=O)N[C@@H](CCCNC(=N)N)C(=O)NCC(=O)NCC(=O)N[C@@H](CCCNC(=N)N)C(=O)N[C@@H](C)C(=O)N[C@@H](CC(=O)O)C(=O)N[C@@H](C)C(=O)N[C@@H](CCCNC(=N)N)C(=O)N[C@@H](C)C(=O)N[C@@H](CC(=O)O)C(=O)N[C@@H](C)C(=O)N[C@@H](CCCNC(=N)N)C(=O)N[C@@H](C)C(=O)N[C@@H](CC(=O)O)C(=O)N[C@@H](C)C(=O)N[C@@H](CCCNC(=N)N)C(=O)N[C@@H](C)C(=O)N[C@@H](CC(=O)O)C(=O)N[C@@H](C)C(N)=O [PDS, AcN-PDSGR-GG-(RADA)4-CONH2]	β-sheet	−	−						
Ac-KAFDITYVRLKFGGRADARADARADARADA-NH2 [KAF, AcN-KAFDITYVRLKF-GG-(RADA)4-CONH2]	random coil	−	−						
AcN-KLDLKLDLKLDL-CONH2 (Ac-KLDLKLDLKLDL-NH2) [KLD12]								retained their morphology and developed a cartilage-like, mechanically functional ECM rich in proteoglycans and type-II collagen	
CSRARKQAASIKVAVSADR									vessel formation
KAFDITYVRLKF									neurite outgrowth
PDGSR									Cell adhesion

Further lines, with some results ahead:

Secondary structure (CD) [1]	Molecule	HAEC monolayer formation, Blending (9:1) [2]	HAEC monolayer formation, peptide content 100% [2]	HAEC monolayer formation, scaffold of 100% peptide ([2]; 0.5% (w/v) peptide, no blending)	HAEC monolayer formation, peptide blends [2]	HAEC attachment to the surface [3]	nitric oxide (NO) release by HAEC [4]	chondrocyte phenotype in hydrogel [5]	Biological activity [6]
β-sheet	CC[C@H](C)[C@H](NC(=O)[C@H](Cc1ccc(O)cc1)NC(C)=O)C(=O)NCC(=O)N[C@@H](CO)C(=O)N[C@@H](CCCNC(=N)N)C(=O)NCC(=O)NCC(=O)N[C@@H](CCCNC(=N)N)C(=O)N[C@@H](C)C(=O)N[C@@H](CC(=O)O)C(=O)N[C@@H](C)C(=O)N[C@@H](CCCNC(=N)N)C(=O)N[C@@H](C)C(=O)N[C@@H](CC(=O)O)C(=O)N[C@@H](C)C(=O)N[C@@H](CCCNC(=N)N)C(=O)N[C@@H](C)C(=O)N[C@@H](CC(=O)O)C(=O)N[C@@H](C)C(=O)N[C@@H](CCCNC(=N)N)C(=O)N[C@@H](C)C(=O)N[C@@H](CC(=O)O)C(=O)N[C@@H](C)C(N)=O [YIG, AcN-YIGSR-GG-(RADA)4-CONH2]	+	+	able to support the formation of a monolayer	readily supported monolayer formation	~100%	promote NO release		
β-sheet	Ac-RYVVLPRGGRADARADARADARADA-NH2 [RYV, AcN-RYVVLPR-GG-(RADA)4-CONH2]	+	−		readily supported monolayer formation	~100%	inhibits NO release		
β-sheet	Ac-TAGSCLRKFSTMGGRADARADARADARADA-NH2 [TAG, AcN-TAGSCLRKFSTM-GG-(RADA)4-CONH2]	+	−		readily supported monolayer formation	~100%	promote NO release		

Source: patent US7713923B2, “Self-assembling peptides incorporating modifications and methods of use thereof” (Massachusetts Institute of Technology, priority 2003, dated 2010)
